Experimental findings from patent US12391692B2, “Spiro ring-containing quinazoline compound” (WIGEN BIOMEDICINE TECHNOLOGY (SHANGHAI) CO., LTD., priority 2020, dated 2025) are described below.

The structures appear in SMILES notation. pIC50: −log10 of the molar value. Bounds are passed on as bounds.

Test [1] relates to pERK level in H358 cells. The test can be described thus: pERK and ERK protein content assay in H358 cells (ELISA). The class given is cell-based. The note with it: Homo sapiens, NCI-H358, pERK/ERK ratio vs DMSO group, compound 1 μM, 24 h, read-out: Inhibition rate (%). The method, then: H358 cells were seeded in a 24-well plate. After one day of growth, a test compound (at a concentration of 1 μM) was added. After 24 h of action of the compound, the cells were lysed, and the cell lysate was transferred to a 96-well ELISA plate. The levels of pERK and ERK in the lysate were measured using an ELISA kit (abcam 176660). The ratio of pERK to ERK was calculated and compared with that of the DMSO group, and the percentage of inhibition of pERK activity by the compound was calculated.

The test system of test [2] is H358 cells. The test can be described thus: Antiproliferative activity against H358 cells (Cell Titer Glow, ultra-low attachment plate). The class given is cell-based. The note with it: Homo sapiens, NCI-H358, 72 h, three days after addition of compound. The method, then:
2500 H358 cells were seeded in a 96-well ultra-low attachment plate (corning, 7007). After one day of growth, a serially diluted compound (a maximum concentration of 5 μM, 5-fold dilution, a total of five doses) was added. Three days after the addition of the compound, Cell Titer Glow (Promega, G9681) was added to evaluate pellet growth, and the IC50 value was calculated.
A general note: Cellular ATP, detected with luciferase, serves as a proxy for viable cell number.

A word on the inhibition: it is the relative decrease from the control value, in per cent. Broadly, the pIC50 is the IC50 on a negative log10 scale, so that one unit is a factor of ten. The low end stands for a high IC50, the high end for a low IC50.

As for `C=CC(=O)N1CC2(CCN(c3nc(N4CC5(CCN5C5COC5)C4)nc4c(OCC(F)(F)F)c(-c5c(C)ccc6[nH]ncc56)c(C5CC5)cc34)CC2)C1` [Compound 71], the inhibition at 1 µM in test [1] was over 90%. The same compound had a pIC50 in test [2] of over 6.52.
On the same counts, the results for `C=CC(=O)N1CC2(CCN(c3nc(N4CC5(CCN5CCOC)C4)nc4c(OCC(F)(F)F)c(-c5c(C)ccc6[nH]ncc56)c(C5CC5)cc34)CC2)C1` [Compound 72] are over 90% and over 6.52.
As to `C=CC(=O)N1CC2(CCN(c3nc(N4CC5(CCCN5C)C4)nc4c(OCC(F)(F)F)c(-c5c(C)ccc6[nH]ncc56)c(C5CC5)cc34)CC2)C1` [Compound 73], the inhibition at 1 µM in test [1] is over 90%. This compound gave a pIC50 in test [2] of over 6.52.
In the case of `C=CC(=O)N1CC2(CCN(c3nc(N4CC5(CCCN5CCOC)C4)nc4c(OCC(F)(F)F)c(-c5c(C)ccc6[nH]ncc56)c(C5CC5)cc34)CC2)C1` [Compound 74], the inhibition at 1 µM in test [1] is over 90%. The compound also had a negative logarithm of the IC50 (pIC50) in test [2] of over 6.52.
Regarding `C=CC(=O)N1CC2(CCN(c3nc(N4CC5(CCCCN5C)C4)nc4c(OCC(F)(F)F)c(-c5c(C)ccc6[nH]ncc56)c(C5CC5)cc34)CC2)C1` [Compound 75], the inhibition at 1 µM in test [1] was 50 to 90%. This compound also gave a pIC50 in test [2] of 6.00 to 6.52.
On to `C=CC(=O)N1CC2(CCN(c3nc(N4CC5(CCCCN5CCOC)C4)nc4c(OCC(F)(F)F)c(-c5c(C)ccc6[nH]ncc56)c(C5CC5)cc34)CC2)C1` [Compound 76], for which the inhibition at 1 µM in test [1] is over 90%. The pIC50 in test [2] is over 6.52.
Regarding `C=CC(=O)N1CC2(CCN(c3nc(N4CCC5(CCN5C)C4)nc4c(OCC(F)(F)F)c(-c5c(C)ccc6[nH]ncc56)c(C5CC5)cc34)CC2)C1` (centres unmarked) [Compound 77], the inhibition at 1 µM in test [1] is over 90%. Besides, the pIC50 in test [2] is over 6.52.
On to `C=CC(=O)N1CC2(CCN(c3nc(N4CCC5(CCN5CCOC)C4)nc4c(OCC(F)(F)F)c(-c5c(C)ccc6[nH]ncc56)c(C5CC5)cc34)CC2)C1` (centres unmarked) [Compound 78], for which the inhibition at 1 µM in test [1] is over 90%. The compound further had a pIC50 in test [2] of over 6.52.
With `C=CC(=O)N1CC2(CCN(c3nc(N4CCC5(CCCN5C)CC4)nc4c(OCC(F)(F)F)c(-c5c(C)ccc6[nH]ncc56)c(C5CC5)cc34)CC2)C1` [Compound 79], the inhibition at 1 µM in test [1] is over 90%. For the same compound, the pIC50 in test [2] was over 6.52.
Taken in the same sequence, the figures for `C=CC(=O)N1CC2(CCN(c3nc(N4CCC5(CCCN5CCOC)CC4)nc4c(OCC(F)(F)F)c(-c5c(C)ccc6[nH]ncc56)c(C5CC5)cc34)CC2)C1` [Compound 80] were 50 to 90% and 6.00 to 6.52.
On to `C=CC(=O)N1CC2(CCN(c3nc(N4CC5(CN(C)CCO5)C4)nc4c(OCC(F)(F)F)c(-c5c(C)ccc6[nH]ncc56)c(C5CC5)cc34)CC2)C1` [Compound 81], for which the inhibition at 1 µM in test [1] was over 90%. Besides, the pIC50 in test [2] was over 6.52.
For `C=CC(=O)N1CC2(CCN(c3nc(N4CC5(CN(CCOC)CCO5)C4)nc4c(OCC(F)(F)F)c(-c5c(C)ccc6[nH]ncc56)c(C5CC5)cc34)CC2)C1` [Compound 82], the inhibition at 1 µM in test [1] was over 90%. The compound further gave a pIC50 in test [2] of over 6.52.
`C=CC(=O)N1CC2(CCN(c3nc(N4CCOC5(CN(C)C5)C4)nc4c(OCC(F)(F)F)c(-c5c(C)ccc6[nH]ncc56)c(C5CC5)cc34)CC2)C1` [Compound 83]: in test [1], the inhibition at 1 µM lay within 50 to 90%. Further, the pIC50 in test [2] was 6.00 to 6.52.
Consider `C=CC(=O)N1CC2(CCN(c3nc(N4CCOC5(CN(CCOC)C5)C4)nc4c(OCC(F)(F)F)c(-c5c(C)ccc6[nH]ncc56)c(C5CC5)cc34)CC2)C1` [Compound 84], for which the inhibition at 1 µM in test [1] lay within 50 to 90%. In addition, the pIC50 in test [2] is 6.00 to 6.52.
Consider `C=CC(=O)N1CC2(CCN(c3nc(O[C@H]4C[C@@H](N(C)C)C4)nc4c(OCC(F)(F)F)c(-c5c(C)ccc6[nH]ncc56)c(C5CC5)cc34)CC2)C1` [Compound 85], for which the inhibition at 1 µM in test [1] was over 90%. Besides, the pIC50 in test [2] was over 6.52.
On to `C=CC(=O)N1CC2(CCN(c3nc(O[C@H]4C[C@H](N(C)C)C4)nc4c(OCC(F)(F)F)c(-c5c(C)ccc6[nH]ncc56)c(C5CC5)cc34)CC2)C1` [Compound 86], for which the inhibition at 1 µM in test [1] lay in the range of 50 to 90%. In test [2], this compound had a pIC50 of 6.00 to 6.52.
